# Reference: article PMC5766233, “Ternary copper(II) complex: NCI60 screening, toxicity studies, and evaluation of efficacy in xenograft models of nasopharyngeal carcinoma” (PLoS ONE, 2018)
# Legend:
# [1] = Hematotoxicity evaluation (blood, spleen, bone marrow) in xenograft bearing mice; format: in vivo, NOD scid gamma female mice; details: for Band neutrophil / Basophils / Eosinophils / Hemoglobin / Lymphocytes / MCHC / MCV / Monocytes / PVC / Plasma protein / RBC / Segmented neutrophil / Thrombocytes / WBC: C666-1-GFP-Luc2 xenograft mice, mean ± SEM
# Method: Values of hematological parameters of mice bearing C666-1-GFP-Luc2, an Epstein-barr virus (EBV) positive NPC cell line xenografts which were treated with 4 and 5 mg/kg of the Cu(II) complex were compared with those from control groups (Table 3). […] This indicated absence of anemia.
# We further investigated the effects of Cu(II) complex on spleen and bone marrow (from femur) responses.
# Blood samples were collected into BD Microtainer Tubes containing dipotassium EDTA (Becton, Dickinson and Company, New Jersey, USA) and submitted to the Veterinary Laboratory Services Unit, Faculty of Veterinary Medicine, Universiti Putra Malaysia, Serdang, Malaysia, for full blood count (FBC) analysis.
# Major organs, bones and excised tumors were preserved in 10% neutral buffered formaldehyde solution (Leica Biosystems, Germany) for 24 to 48 h and subsequently processed into formalin-fixed paraffin-embedded tissue blocks following standard tissue processing protocol using Leica ASP300 S (Leica Biosystems, Nussloch, Germany). Fixed bones (skull, femur and tibia) were decalcified with Surgipath Decalcifier I (Leica Biosystems, Germany) for 4 to 6 h depending on size before tissue processing. After paraffin embedding, tissue blocks were sectioned ([…]) using rotary microtome Microm HM340E (Thermo Scientific, Walldorf, Germany) and stained with hematoxylin and eosin (H&E) dyes using Leica Autostainer XL (Leica Biosystems, Nussloch, Germany) before histopathological examination.
# All H&E-stained tissue section slides were examined under Nikon Eclipse Ni microscope (Nikon Instruments Inc., New York, USA) and microscopic images were taken using 20x and 40x objectives. For H&E tumor section slides, the percentage of tumor necrosis was determined qualitatively using microscope by the histopathologist in order to estimate the percentage of necrotic area induced by the Cu(II) complex in the tumors. For determination of femoral bone marrow suppression, low power (10x magnification) objective was used to scan the slides while 100x magnification to assess the degree of cellularity and amount of fat present.
# [2] = test system: cervical, ovarian, lung, breast, lymphoma, leukemia, colorectal carcinoma and NPC cell lines; design: method as in PMID 24549332; details: 24 h; HeLa, SKOV3, A549, PC9, MCF7, Namalwa, HL60, SW480, SW48, HCT118, HONE1, HK1, C666-1; cited from earlier work
# CYP 2C9 = molecular target: T1, CYP 2C9 (Homo sapiens, UniProt P11712); test: CYP450 inhibition assay, pooled human liver microsomes; format: in vitro ADME; details: probe tolbutamide
# T1 construct: Pooled human liver microsomes (Sekisui Xeno Tech, LLC., Kansas City, KS, USA) were incubated; tissue Sekisui Xeno Tech, LLC; host or cells: pooled human liver microsomes
# T1 sequence (P11712 whole entry): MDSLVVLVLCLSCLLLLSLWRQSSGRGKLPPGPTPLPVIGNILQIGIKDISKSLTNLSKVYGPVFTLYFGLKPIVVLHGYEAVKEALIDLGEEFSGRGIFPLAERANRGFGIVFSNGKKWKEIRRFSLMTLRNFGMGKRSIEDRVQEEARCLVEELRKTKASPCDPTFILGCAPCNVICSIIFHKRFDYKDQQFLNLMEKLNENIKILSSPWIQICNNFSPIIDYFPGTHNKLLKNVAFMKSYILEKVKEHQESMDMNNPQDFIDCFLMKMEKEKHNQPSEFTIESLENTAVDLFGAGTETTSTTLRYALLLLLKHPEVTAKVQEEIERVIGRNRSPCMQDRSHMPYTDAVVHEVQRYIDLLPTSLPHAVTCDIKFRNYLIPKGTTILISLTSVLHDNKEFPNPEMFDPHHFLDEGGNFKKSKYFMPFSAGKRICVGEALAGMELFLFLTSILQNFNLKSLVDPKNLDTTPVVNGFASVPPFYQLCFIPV
# CYP3A = test: Cytochrome P450 induction assay in rat primary hepatocytes, CYP3A; details: for Fold induction CYP3A: 3 days; for % of positive control CYP3A: positive control dexamethasone 30 μM
# Method: Assessment for potential drug-drug interaction is an important component of drug discovery and development. […] Most drug-drug interaction and drug metabolism occur in the hepatic cytochrome P450 (CYP) system. CYP is a superfamily of metabolizing enzymes located primarily in hepatocytes. Inhibition or induction of CYP enzymes is a mechanism for drug-drug interaction. In the current work, the inhibition and induction of CYP enzymes were investigated. CYP induction assay was performed using rat primary hepatocytes for CYP […] isoforms with dexamethasone (30 μM) and 3-methyl cholanthrene (1.0 μM) as […], respectively. Cytochrome CYP 3A enzymes are considered to be the most important enzymes catalyzing drug metabolism with broad substrate specificity while CYP 1A enzymes play key roles in the metabolic activation of aromatic hydrocarbons to carcinogenic metabolites. In orally administered anticancer drug, gut wall CYP 3A enzyme is considered important for drug-drug interactions and xenobiotic interactions.
# 5.0 x 10^5 viable rat hepatocytes were seeded into collagen-coated 24 well plate in 500 μL William’s medium E (Sigma Aldrich) per well and they were incubated at 37°C in a 5% CO2 humidified incubator. After an overnight incubation, the medium in each designated well was replaced with 500 μL of fresh medium containing the specified concentration of Cu(II) complex (1.0, 0.3 and 0.1 μM), dexamethasone (30 μM), 3-methyl cholanthrene (1.0 μM) as reference standards (positive controls) or fresh medium alone (vehicle control). The cells were treated for 3 consecutive days with daily replacement of fresh medium containing compounds. After incubation, the cells were washed with 1X HBSS and the medium was replaced with 300 μL of probe substrates (Midazolam at 10 μM and Phenacetin at 100 μM; prepared in HBSS). The cells were then incubated for a further 20 min at 37°C with mild shaking. The reaction was terminated by adding 600 μL of cold acetonitrile followed by scraping of cells. The above mixture in each well was transferred to a tube, and these tubes were centrifuged at 10,000 rpm for 10 min. The concentration/level of metabolites in the supernatant was monitored by LC-MS/MS.
# The extent of fold induction as well as percent of positive control was calculated relative to basal control (untreated) by using the following formula.
# %Activity=(averagearearatiooftreated/averagearearatioofbasalcontrol)x100
# Foldinduction=%activity/100%ofpositivecontrol=foldinduction(Cu(II)treated)/foldinduction(referencestandardtreated)x100
smiles,measurement,setting,value
"CC(C)(N)C(=O)[O-].O.O=[N+]([O-])[O-].[Cu+2].c1cnc2c(c1)ccc1cccnc12 [Cu(II) complex, [Cu(phen)(C-dmg)(H2O)]NO3]",Band neutrophil,[1]; 4 mg/kg,0.1 ± 0.0 x10^9/L
same,Basophils,[1]; 4 mg/kg,0.0 ± 0.0 x10^9/L
same,Eosinophils,[1]; 4 mg/kg,0.0 ± 0.0 x10^9/L
same,Hemoglobin,[1]; 4 mg/kg,126.8 ± 10.0 g/L
same,Lymphocytes,[1]; 4 mg/kg,0.2 ± 0.0 x10^9/L
same,MCHC,[1]; 4 mg/kg,308.5 ± 4.9 g/L
same,MCV,[1]; 4 mg/kg,52.9 ± 1.2 fL
same,Monocytes,[1]; 4 mg/kg,0.2 ± 0.1 x10^9/L
same,PVC,[1]; 4 mg/kg,0.4 ± 0.0 L/L
same,Plasma protein,[1]; 4 mg/kg,59.5 ± 2.2 g/L
same,RBC,[1]; 4 mg/kg,7.8 ± 0.7 x10^12/L
same,Segmented neutrophil,[1]; 4 mg/kg,2.0 ± 0.4 x10^9/L
same,Thrombocytes,[1]; 4 mg/kg,1659.0 ± 120.4 x10^9/L
same,WBC,[1]; 4 mg/kg,2.5 ± 0.5 x10^9/L
same,Band neutrophil,[1]; 5 mg/kg,0.1 ± 0.0 x10^9/L
same,Basophils,[1]; 5 mg/kg,0.0 ± 0.0 x10^9/L
same,Eosinophils,[1]; 5 mg/kg,0.0 ± 0.0 x10^9/L
same,Hemoglobin,[1]; 5 mg/kg,133.7 ± 4.4 g/L
same,Lymphocytes,[1]; 5 mg/kg,0.1 ± 0.0 x10^9/L
same,MCHC,[1]; 5 mg/kg,308.3 ± 5.0 g/L
same,MCV,[1]; 5 mg/kg,56.2 ± 1.8 fL
same,Monocytes,[1]; 5 mg/kg,0.2 ± 0.0 x10^9/L
same,PVC,[1]; 5 mg/kg,0.4 ± 0.0 L/L
same,Plasma protein,[1]; 5 mg/kg,55.7 ± 2.5 g/L
same,RBC,[1]; 5 mg/kg,7.8 ± 0.4 x10^12/L
same,Segmented neutrophil,[1]; 5 mg/kg,2.5 ± 0.2 ^* x10^9/L
same,Thrombocytes,[1]; 5 mg/kg,1288.2 ± 155.8 x10^9/L
same,WBC,[1]; 5 mg/kg,2.9 ± 0.3 ^* x10^9/L
same,spleen weight,"[1]; C666-1-GFP-Luc2 bearing mice, 5 and 6 mg/kg, vs control groups",significantly lower weight
same,spleen weight,"[1]; HK1 bearing mice, 4, 6 and 8 mg/kg",did not show weight loss
same,bone marrow suppression (femur),[1]; all treated groups,no evidence of bone marrow suppression
same,IC50,[2],1.7 to 19 µM
same,IC50,CYP 2C9,8.56 µM
same,Fold induction CYP3A,CYP3A; 0.1 μM,1.3
same,% of positive control CYP3A,CYP3A; 0.1 μM,4.7%
same,Fold induction CYP3A,CYP3A; 0.3 μM,1.2
same,% of positive control CYP3A,CYP3A; 0.3 μM,4.3%
same,Fold induction CYP3A,CYP3A; 1.0 μM,0.8
same,Cell death observed,"CYP3A; 1.0 μM, rat hepatocytes in the induction assay",** Cell death observed (approximately 30%).
same,% of positive control CYP3A,CYP3A; 1.0 μM,3.0%
same,"induction, % of positive control, CYP3A",CYP3A; 0.1-1.0 μM,< 13%
